According to PMC5412445, “ZeGlobalTox: An Innovative Approach to Address Organ Drug Toxicity Using Zebrafish” (International Journal of Molecular Sciences, 2017):
Where two headings read alike, the source gives them in different places.

Legend:
[1] = test system: zebrafish larvae heart; assay: ZeGlobalTox cardiotoxicity evaluation (heart video, ZeCardio software); assay type: in vivo, zebrafish (Danio rerio); conditions: 100 hpf, 4 h after drug incubation at NOEC (haloperidol 10 µM)
Method: Four cardiac parameters were evaluated to assess whether a compound was cardiotoxic: heart rate (beats per minute, BPM), QTc prolongation, ejection fraction (EJF), and cardiac arrest. […] 1% DMSO was used as the negative control.
Cardiotoxicity evaluation was performed from 96 hpf, when the zebrafish heartbeat is already stabilised, so the analysis might not be altered by unstable beating. Zebrafish hearts were video-recorded at 4 h after drug incubation (100 hpf) and analysed using the ZeCardio® β software (Figure 3A).
After 4 h of drug incubation (100 hpf), zebrafish larvae were anesthetized by immersion in […] tricaine methanesulfonate (A4050, Sigma-Aldrich, Saint Louis, MO, USA)/E3 solution. […] The 1% DMSO treated embryos were used as negative cardiotoxic controls. Embryos were positioned in an agarose based mold to allow their appropriate orientation under the fluorescence stereo microscope (Olympus MVX10). Individual fluorescent hearts were recorded during 60 s each (Figure 6A). Videos were acquired with a high-speed recording camera (Hamamatsu C11440 ORCA-flash 2.8) and analysed with the ZeCardio® β software to extract different cardiac parameters—heart rate, cardiac arrest, QTc prolongation, and Ejection Fraction (EJF) (Figure 6B).
ZeCardio® β software, developed by ZeClinics and currently in β status, provides a graphical user interface (GUI) that facilitates the semi-automatic analysis of living heart videos. Interactive analysis of the different parameters functions as follows: The user draws a line along the heart axis, from ventricle to atrium, to initiate the calculation. […] All lines can be subjected to modification of their angles and lengths.
Heart beat frequency for each chamber is detected and frequencies are presented in the GUI as a mean. A plot distribution is used for assessing beat stability over time (Figure 6F). In the same fashion, chamber specific cardiac arrest is measured as the longest beating pause (Figure 6H). No beating chambers and/or incorrect bpm can be manually flagged when detected.
For calculation of the QTc interval (linearly corrected QT interval), the Framingham formula (QTc = QT + 0.154 (1 − RR)) was adjusted for zebrafish as QTc = QT + 0.154 (2.66 − RR). RR = 6.6 ms/measured bpm is applied (Figure 6G). Finally, the Ejection Fraction, calculated as the maximal dilatation (the diastolic diameter, DD) versus the maximal contraction (systolic diameter, SD) is measured in % as EF% = (DD − SD)/DD*100 (Figure 6G). Computed values for the described parameters were exported in .csv format (Figure 6H).

[2] = in vivo; assay type: in vivo; conditions: zebrafish, in vivo; mortality; embryos incubated 3 to 96 hpf; 5 logarithmic concentrations 0.1 µM to 1 mM; 1% DMSO
Source text: (§1) Several issues were considered when planning the experimental protocol. The main concern was that drug-induced mortality and/or developmental toxicity (teratogenicity) could mask possible organ-toxicities appearing later in development. […] This preliminary assay allowed for the identification of non-mortal/non-teratogenic concentrations—no observed effect concentration (NOEC)—to use in the following assays. The hypothesis is that NOEC could affect organ physiology (organ toxicity), while uncoupled from putative developmental toxicity side-effects affecting organ development or function. Another consideration was to start drug incubations at 96 hours post fertilization (hpf), when the analysed organs are close to or already developed (Figure 1B). The overall aim is to understand the drug impact on organ physiology and function rather than early embryogenesis. The third consideration was to organize the sequential organ evaluation during the experimental and drug incubation time.
(§2) 1% DMSO, which is the constant solvent concentration in all conditions, was used as the negative control.
(§3) Thus, 20 wild type (wt) zebrafish embryos per condition were incubated with tested compounds from 3 to 96 hpf. The test was performed in 5 logarithmic concentrations per drug (from 0.1 µM to 1 mM). Each larva was analysed for mortality, body deformity, edema, tail detachment, pigmentation, heart activity, heart edema, and motor activity. […] DMSO 1% was used as the negative control in all experiments.

[3] = test system: humans; conditions: cited from earlier work
[4] = test system: wild type zebrafish embryos; assay: in vivo; assay type: in vivo; conditions: embryos incubated 3 to 96 hpf; 5 logarithmic concentrations 0.1 µM to 1 mM; 1% DMSO
Source text: as §1, §2, §3

[5] = test system: zebrafish larvae liver; assay: ZeGlobalTox hepatotoxicity: Oil Red O staining (steatosis and yolk lipid accumulation); conditions: 132 hpf; for Percentage of larvae presenting steatosis: 36 h drug incubation at NOEC (EtOH 2%, MPTP 100 µM), DMSO 24.44%
Method: In order to assess drugs producing steatosis and yolk lipid accumulation, and subsequent to the RFP filtered images being acquired, zebrafish larvae were stained with Oil Red O. Larvae and were sorted into steatosis positive or negative, yolk lipid accumulation, or both (see materials and methods).
For the ZeGlobalTox assay, fertilized Tg(cmlc2:GFP; fabp10:RFP; ela31:EGFP) zebrafish embryos were collected in E3 medium (5 mM NaCl, 0.17 mM KCl, 0.33 mM CaCl2, 0.33 mM, MgSO4) in Petri dishes. At 3, 24, and 48 hpf, dishes were observed and all not fertilized, abnormal, or coagulated eggs were discarded. At 96 hpf, 20 larvae per condition were incubated with the NOECs from the different drugs and allowed to develop until 132 hpf at 28.5 °C.
After 36 h of drug incubation (132 hpf), embryos are fixed in 4% paraformaldehyde (158127-500G, Sigma-Aldrich, Saint Louis, MO, USA) for 2–4 h at room temperature (RT) and then are 3× washed with PBS.
In order to detect the presence of steatosis and yolk lipid retention, zebrafish larvae were stained with Oil Red O (O0625-25G, Sigma-Aldrich, Saint Louis, MO, USA) as described in [77]. Briefly, the skin pigment from fixed larvae is removed by incubating with bleaching solution (for 10 mL: 6 mL H2O, 0.25 mL 20× SSC, 0.5 mL formamide, 3.3 mL H2O2) during 20 min at RT. Then, the larvae are 5× washed with PBS. Bleached embryos are first submerged in 85% Propylene glycol (PG) (134368-1L, Sigma-Aldrich, Saint Louis, MO, USA) for 10 min and then in 100% PG for another 10 min before staining them with Oil Red O 0.5% in 100% PG (overnight, at RT and with gentle rocking). Oil Red O stained embryos are washed in 100% PG for 30 min, 50 min in 85% PG, and 40 min in 85% PG with an equal volume of PBS. Finally, embryos are washed 1× with PBS before adding 80% glycerol (G7757-500ML, Sigma-Aldrich, Saint Louis, MO, USA). Bright field images are taken to detect both steatosis and yolk lipid accumulation. […] Yolk lipid retention is considered positive when a red strong signal is observed in the yolk area (Figure 5F).
DMSO 1% treated larvae were used as the negative control group.

[6] = test system: zebrafish larvae; assay: ZeGlobalTox neurotoxicity evaluation (locomotion, light/dark trial); assay type: in vivo, zebrafish (Danio rerio); conditions: 120 hpf, drug from 96 hpf at NOEC (MPTP 100 µM, paracetamol 2600 µM)
Method: By 5 dpf, zebrafish larvae perform spontaneous swimming and their visual system is fully developed. Therefore, behavioural experiments were performed from this time point (Figure 4A). Deviations in total distance moved, in response to photo-visual stimulation, were analysed as a direct measurement of neurotoxicity. Thus, drugs increasing or decreasing total distance moved when compared to the DMSO-only group were considered neurotoxic. As the positive neurotoxic control we used MPTP, which has been identified as a neurotoxic drug in humans and zebrafish.
Immediately after heart video acquisition, larvae are washed with E3 medium to remove tricaine methanesulfonate from the solution. Fresh drug solution is added and the larvae are transferred individually in a volume of 150 µL to 96 well plates.
Neurotoxicity is analysed at 120 hpf by locomotion assessment using the EthoVision XT 11.5 software and the DanioVision device from Noldus Information Technologies, Wageningen, The Netherlands. This closed system consists of a camera placed above a chamber with circulating water and a temperature sensor set at 28 °C. The 96-well plates are placed in the chamber, which can then be illuminated with white light using the software. Larvae are then left for 20 min under these conditions and with the lights on to help their acclimation. Finally, larvae locomotion is measured during 50′ under the following light/dark conditions: 10′ darkness-10′ Light-10′ darkness-10′ Light-10′ darkness. Total distance moved (in mm) is acquired under this light/dark trial. Due to circadian rhythms, all locomotion assays were performed from 13:00 pm onwards to ensure steady activity of the zebrafish.
Neurotoxicity is assessed by comparing locomotion differences among the tested compounds (solved in DMSO) and the negative control group (DMSO 1%-only).

[7] = known toxicity in humans, ref TOXNET (HSDB), Side effects (EMBL), drugs.com, [22],[30],[31],[34],[35]
[8] = known toxicity in humans, ref TOXNET (HSDB), Side effects (EMBL), drugs.com, ema.europa, [19],[20],[21]
[9] = known toxicity in humans, ref TOXNET (HSDB), Side effects (EMBL), drugs.com, ema.europa, [24],[26],[27],[32],[33]

| SMILES | LC50 [2] [µM] | Neurotoxicity (toxicity in humans) [3, 7] | Cardiotoxicity (toxicity in humans) [3, 8] | Hepatotoxicity (toxicity in humans) [3, 9] | 96 hpf NOEC [4] [µM] | 96 hpf LOEC [4] [µM] | also measured |
| --- | --- | --- | --- | --- | --- | --- | --- |
| O=C(O)c1cn(C2CC2)c2cc(N3CCNCC3)c(F)cc2c1=O [Ciprofloxacin, ciprofloxacin] | – | – | – | – | – | – | Heart rate (beats per minute) compared to DMSO-only [1]: increased heart rates; Longest cardiac arrest compared to DMSO-only [1]: no differences |
| COc1cc(N)c(Cl)cc1C(=O)NC1CCN(CCCOc2ccc(F)cc2)CC1OC (centres unmarked) [Cisapride, cisapride] | > 1000 | Safe | Toxic ^1,3 | Safe | – | – | Heart rate (beats per minute) compared to DMSO-only [1]: decreased the heart rate; Longest cardiac arrest compared to DMSO-only [1]: Longer cardiac arrest |
| OC[C@H]1OC(O)[C@H](O)[C@@H](O)[C@@H]1O (stereo partly drawn) [D-(+)-glucose] | – | – | – | – | 1000.00 | – | Cardiotoxicity (toxicity in humans) ([3]; in vivo): Safe; Hepatotoxicity (toxicity in humans) ([3]; in vivo): Safe; Neurotoxicity (toxicity in humans) ([3]; in vivo): Safe |
| CCN(CC)c1ccc(C=O)cc1 [DEAB, 4-diethylaminobenzaldehyde] | 186 | – | – | – | 1.00 | 10.00 | – |
| C[C@]12CC[C@H](O)C[C@H]1CC[C@@H]1[C@@H]2C[C@@H](O)[C@]2(C)[C@@H](C3=CC(=O)OC3)CC[C@]12O [Digoxigenin, digoxigenin] | – | – | Toxic ^1 | – | 100.00 | 1000.00 | Percentage of larvae presenting steatosis [5]: 55% |
| CC(=O)O[C@@]12CO[C@@H]1C[C@H](O)[C@@]1(C)C(=O)[C@H](O)C3=C(C)[C@@H](OC(=O)[C@H](O)[C@@H](NC(=O)OC(C)(C)C)c4ccccc4)C[C@@](O)([C@@H](OC(=O)c4ccccc4)[C@H]21)C3(C)C [Docetaxel, docetaxel] | – | Toxic ^1,2,3 | Toxic ^2,3 | Toxic ^1,2,3 | – | 100.00 | Heart rate (beats per minute) compared to DMSO-only [1]: decreased the heart rate; Longest cardiac arrest compared to DMSO-only [1]: Longer cardiac arrest; Motility (total distance moved) compared to DMSO [6]: increased motility |
| CN(CCOc1ccc(NS(C)(=O)=O)cc1)CCc1ccc(NS(C)(=O)=O)cc1 [Dofetilide, dofetilide] | – | Safe | Toxic ^1,2,3 | Safe | – | 100.00 | Heart rate (beats per minute) compared to DMSO-only [1]: decreased the heart rate; Longest cardiac arrest compared to DMSO-only [1]: Longer cardiac arrest |
| CCO [Ethanol] | – | Toxic ^1 | Toxic ^1 | Toxic [26, 27] | – | – | – |
| CC(C)(C)NC(=O)[C@H]1CC[C@H]2[C@@H]3CC[C@H]4NC(=O)C=C[C@]4(C)[C@H]3CC[C@]12C [Finasteride, finasteride] | 31.6 | Safe | Safe | Safe | – | 100.00 | Percentage of larvae presenting steatosis [5]: 65% |
| CCOC(=O)Nc1ccc(NCc2ccc(F)cc2)nc1N [Flupirtine, flupirtine] | 136 | Safe | Safe | Toxic ^4 | 10.00 | 100.00 | – |
| CC(=O)O[C@H]1C[C@@]2(C)[C@@H](C[C@@H](O)[C@H]3[C@@]4(C)CC[C@@H](O)[C@@H](C)[C@@H]4CC[C@@]32C)/C1=C(\CCC=C(C)C)C(=O)O [Fusidic Acid, fusidic acid] | 124 | Safe | Safe | Toxic [32, 33] | – | 100.00 | – |
| O=C(CCCN1CCC(O)(c2ccc(Cl)cc2)CC1)c1ccc(F)cc1 [Haloperidol] | – | Toxic ^1,2,3 | Toxic ^1,2,3 [19, 20, 21] | Safe | – | – | Heart rate (beats per minute) compared to DMSO-only [1]: decreased the heart rate; QTc interval compared to DMSO-only [1]: QTc interval prolongation |
| NNC(=O)c1ccncc1 [Isoniazid, isoniazid] | – | Toxic ^1,2,3 | Safe | Toxic ^1,2,3 | 1000.00 | – | Percentage of larvae presenting steatosis [5]: 60% |
| N[C@@H](CS)C(=O)O [L-Cysteine, L-cysteine] | – | – | – | – | 1000.00 | – | – |
| NC(=O)CC[C@H](N)C(=O)O [L-Glutamine, L-glutamine] | – | Safe | Safe | Safe | – | – | – |
| C[C@](N)(Cc1ccc(O)c(O)c1)C(=O)O [Methyldopa, methyldopa] | – | Toxic ^1,3 | Safe | Toxic ^1,2,3 | 1000.00 | – | Percentage of larvae presenting yolk lipid retention ([5]; 36 h drug incubation at NOEC (paracetamol 2600 µM), DMSO 22.22%): 50% |
| [Cl-].[Na+] [NaCl, sodium chloride] | – | Safe | Safe | Safe | 1000.00 | – | – |
| Cc1ccc(C(=O)Nc2ccc(S(=O)(=O)O)c3cc(S(=O)(=O)O)cc(S(=O)(=O)O)c23)cc1NC(=O)c1cccc(NC(=O)Nc2cccc(C(=O)Nc3cc(C(=O)Nc4ccc(S(=O)(=O)O)c5cc(S(=O)(=O)O)cc(S(=O)(=O)O)c45)ccc3C)c2)c1 [Suramin, suramin] | 197 | Toxic [34, 35] | Safe | Safe | – | 1000 | – |
